Where two headings read alike, the source gives them in different places.
Test system: primary rat mixed cortical cells
Assay: In vitro myelination assay (MBP positive myelin strands, fold myelin pixels above background)
Assay type: cell-based
Conditions: for fold induction at 1 µM / fold induction at 10 µM: Rattus norvegicus
Summary of the method: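 P1 rat cortical cells (neurons, OPCs, oligodendrocytes, astrocytes, microglia) were cultured 14 days at 37 °C with compound, with half-medium changes containing 1× compound on days 6 and 10. Fixed cells were immunostained for MBP and imaged at 10×. Total MBP myelin pixels per well were expressed as fold above no-compound baseline at 1.0 μM and 10.0 μM.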

[1] = 1.0 μM compound, read-out: Fold myelin pixels above background relative to baseline of no added compound
[2] = 10.0 μM compound, read-out: Fold myelin pixels above background relative to baseline of no added compound
[3] = 1.0 μM compound, relative to baseline of no added compound, read-out: Fold myelin pixels above background
[4] = 10.0 μM compound, relative to baseline of no added compound, read-out: Fold myelin pixels above background
[5] = 1.0 μM compound, relative to baseline of no added compound, read-out: Fold myelin pixels above background, 1.0 μM
[6] = 10.0 μM compound, relative to baseline of no added compound, read-out: Fold myelin pixels above background, 10.0 μM

SMILES	fold induction at 1 µM [3]	fold induction at 10 µM [4]	fold induction at 1 µM [5]	fold induction at 10 µM [6]	also measured
Cc1cc(Nc2ncn(-c3cc(F)cc(F)c3)n2)cc([C@@H]2CCN(C3COC3)C[C@@H]2F)c1.Cc1cc(Nc2ncn(-c3cc(F)cc(F)c3)n2)cc([C@H]2CCN(C3COC3)C[C@H]2F)c1 [Compound 208, 1-(3,5-difluorophenyl)-N-[3-[(3S,4R)-3-fluoro-1-(oxetan-3-yl)-4-piperidyl]-5-methyl-phenyl]-1,2,4-triazol-3-amine; 1-(3,5-difluorophenyl)-N-[3-[(3R,4S)-3-fluoro-1-(oxetan-3-yl)-4-piperidyl]-5-methyl-phenyl]-1,2,4-triazol-3-amine]	–	–	–	–	Fold myelin pixels above background, 1.0 μM (1.0 μM compound, relative to baseline of no added compound): +++ (>100 to 1000x); Fold myelin pixels above background, 10.0 μM (10.0 μM compound, relative to baseline of no added compound): − (≤1)
CCC(CNc1cc(C)cc(Nc2ncn(-c3cc(F)cc(F)c3)n2)c1)N1CCOCC1 (centres unmarked) [Compound 985, N3-[1-(3,5-difluorophenyl)-1,2,4-triazol-3-yl]-5-methyl-N1-(2-morpholinobutyl)benzene-1,3-diamine]	–	–	–	–	fold induction at 1 µM [1]: 1 to 10; fold induction at 10 µM [2]: 1 to 10
Cc1cc(Nc2ncn(-c3cccc(F)c3)n2)cc(N2CCC(C3COC3)CC2)c1 [Compound 522, 1-(3-fluorophenyl)-N-[3-methyl-5-[4-(oxetan-3-yl)-1-piperidyl]phenyl]-1,2,4-triazol-3-amine]	100 to 1000	100 to 1000	–	–	–
[2H]C1([2H])N(CC(F)F)C([2H])([2H])C([2H])([2H])N(c2cc(C)cc(Nc3ncn(-c4cc(F)cc(F)c4)n3)c2)C1([2H])[2H] [Compound 935, 1-(3,5-difluorophenyl)-N-[3-methyl-5-[2,2,3,3,5,5,6,6-octadeuterio-4-(2,2-difluoroethyl)piperazin-1-yl]phenyl]-1,2,4-triazol-3-amine]	–	–	–	–	fold induction at 1 µM [1]: 10 to 100
Cc1c(Nc2ncn(-c3cc(F)cc(F)c3)n2)cc(N2CCN(C3COC3)CC2)cc1OC(C)C [Compound 591, 1-(3,5-difluorophenyl)-N-[3-isopropoxy-2-methyl-5-[4-(oxetan-3-yl)piperazin-1-yl]phenyl]-1,2,4-triazol-3-amine]	10 to 100	10 to 100	–	–	–
Fc1cc(F)cc(-n2cnc(Nc3cc(C(F)F)cc(N4CC(N5CCOCC5)C4)n3)n2)c1 [Compound 732, 4-(difluoromethyl)-N-[1-(3,5-difluorophenyl)-1,2,4-triazol-3-yl]-6-(3-morpholinoazetidin-1-yl)pyridin-2-amine]	1 to 10	1 to 10	–	–	–
FC(F)(F)c1cc(Nc2ncn(-c3cccnc3)n2)nc(N2CCN(C3COC3)CC2)c1 [Compound 684, 6-[4-(oxetan-3-yl)piperazin-1-yl]-N-[1-(3-pyridyl)-1,2,4-triazol-3-yl]-4-(trifluoromethyl)pyridin-2-amine]	10 to 100	10 to 100	–	–	–
Cc1cc(Nc2ncn(-c3ccccc3)n2)cc(N2CCN(C)CC2)n1 [Compound 156, 2-methyl-6-(4-methylpiperazin-1-yl)-N-(1-phenyl-1,2,4-triazol-3-yl)pyridin-4-amine]	–	–	1000 to 10000	≤ 1	–
Cc1cc(N2CCOCC2)cc(Nc2ncn(-c3cccnc3)n2)c1F [Compound 451, N-(2-fluoro-3-methyl-5-morpholino-phenyl)-1-(3-pyridyl)-1,2,4-triazol-3-amine]	1 to 10	100 to 1000	–	–	–
Cc1cc(NCCN2CCOCC2C)cc(Nc2ncn(-c3cc(F)cc(F)c3)n2)c1 (centres unmarked) [Compound 1082, N1-[1-(3,5-difluorophenyl)-1,2,4-triazol-3-yl]-5-methyl-N3-[2-(3-methylmorpholin-4-yl)ethyl]benzene-1,3-diamine]	–	–	–	–	fold induction at 1 µM [1]: 10 to 100; fold induction at 10 µM [2]: ≤ 1
CC(C)(C)OC(=O)N1CCN(c2cc(C(F)(F)F)cc(Nc3ncn(-c4cc(F)cc(F)c4)n3)n2)CC1 [Compound 557, tert-butyl 4-[6-[[1-(3,5-difluorophenyl)-1,2,4-triazol-3-yl]amino]-4-(trifluoromethyl)-2-pyridyl]piperazine-1-carboxylate]	≤ 1	≤ 1	–	–	–
Cc1cc(Nc2ncn(-c3ccccc3)n2)cc(C2CN(C3COC3)C2)c1 [Compound 65, N-[3-methyl-5-[1-(oxetan-3-yl)azetidin-3-yl]phenyl]-1-phenyl-1,2,4-triazol-3-amine]	–	–	1000 to 10000	1 to 10	–
Cc1cc(Nc2ncn(-c3cc(F)cc(F)c3)n2)cc(C2CCN(C3COC3)C2)c1 (centres unmarked) [Compound 25, 1-(3,5-difluorophenyl)-N-[3-methyl-5-[1-(oxetan-3-yl)pyrrolidin-3-yl]phenyl]-1,2,4-triazol-3-amine]	–	–	1000 to 10000	1000 to 10000	–
CC(=O)N1CCCC(c2cc(C)cc(Nc3ncn(-c4ccccc4)n3)c2)C1 (centres unmarked) [Compound 117, 1-[3-[3-methyl-5-[(1-phenyl-1,2,4-triazol-3-yl)amino]phenyl]-1-piperidyl]ethanone]	–	–	1000 to 10000	≤ 1	–
Cc1cc(Nc2ncn(-c3cc(F)cc(F)c3)n2)cc(N2CCC(N3CCOCC3)C2)c1 (centres unmarked) [Compound 284, 1-(3,5-difluorophenyl)-N-[3-methyl-5-(3-morpholinopyrrolidin-1-yl)phenyl]-1,2,4-triazol-3-amine]	–	–	1 to 10	1 to 10	–
Cc1cc(Nc2ncn(-c3cnccn3)n2)cc(N2CCN(C)CC2)c1 [Compound 68, N-[3-methyl-5-(4-methylpiperazin-1-yl)phenyl]-1-pyrazin-2-yl-1,2,4-triazol-3-amine]	–	–	100 to 1000	1000 to 10000	–
Cc1cc(Nc2ncn(-c3ccc(F)c(F)c3)n2)cc(OC2CCCN(C3COC3)C2)c1 (centres unmarked) [Compound 590, 1-(3,4-difluorophenyl)-N-[3-methyl-5-[[1-(oxetan-3-yl)-3-piperidyl]oxy]phenyl]-1,2,4-triazol-3-amine]	10 to 100	1 to 10	–	–	–
Cc1cc(Nc2ncn(-c3cc(F)cc(F)c3)n2)cc(N2CCOC(CN3CCCC3)C2)c1 (centres unmarked) [Compound 1027, 1-(3,5-difluorophenyl)-N-[3-methyl-5-[2-(pyrrolidin-1-ylmethyl)morpholin-4-yl]phenyl]-1,2,4-triazol-3-amine]	–	–	–	–	fold induction at 1 µM [1]: 1 to 10; fold induction at 10 µM [2]: ≤ 1
CCC1CN(CCNc2cc(C)cc(Nc3ncn(-c4cc(F)cc(F)c4)n3)c2)CCO1 (centres unmarked) [Compound 917, N3-[1-(3,5-difluorophenyl)-1,2,4-triazol-3-yl]-N1-[2-(2-ethylmorpholin-4-yl)ethyl]-5-methyl-benzene-1,3-diamine]	–	–	–	–	fold induction at 1 µM [1]: 10 to 100; fold induction at 10 µM [2]: ≤ 1
Cc1cc(Nc2ncn(-c3ccc(F)c(F)c3)n2)cc(N2CCN(C3(C)COC3)CC2)c1 [Compound 633, 1-(3,4-difluorophenyl)-N-[3-methyl-5-[4-(3-methyloxetan-3-yl)piperazin-1-yl]phenyl]-1,2,4-triazol-3-amine]	10 to 100	10 to 100	–	–	–
Fc1cc(F)cc(-n2cnc(Nc3cc(C4=CCOC4)cc(N4CCOCC4)c3)n2)c1 [Compound 298, 1-(3,5-difluorophenyl)-N-[3-(2,5-dihydrofuran-3-yl)-5-morpholino-phenyl]-1,2,4-triazol-3-amine]	–	–	1000 to 10000	100 to 1000	–

Reference: US10766869B2, “Triazoles for the treatment of demyelinating dieases” (Vertex Pharmaceuticals Incorporated, priority 2015, dated 2020)
